This passage reports TGI results from PubChem BioAssay (NCI).

The structures appear in SMILES notation.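 Cultured in 96-well plates, cells were exposed to test compound for 48 hours across five concentrations. TGI is the concentration that stops growth completely.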 Bounds are passed on as bounds.

Test systems include HOP-62 NSCLC; IGROV1 ovarian; K-562 leukemia; KM12 colon; M14 melanoma; OVCAR-4 ovarian; RXF 393 renal; SK-MEL-28 melanoma; SNB-19 CNS; TK-10 renal; U251 CNS; UACC-257 melanoma; UACC-62 melanoma; HOP-92 NSCLC; NCI/ADR-RES ovarian; T-47D breast.
What all share (assay): NCI tumour cell line growth inhibition, 48 h

Take `C[N+](C)=c1nc(N2CCc3ccccc3C2)ss1`: the TGI in the experiment on HOP-62 NSCLC, in the experiment with IGROV1 ovarian, in the experiment with K-562 leukemia, in the experiment with KM12 colon, in the experiment with M14 melanoma and in the experiment on OVCAR-4 ovarian was more than 100 µM throughout. Besides, the TGI in the experiment with RXF 393 renal, in the experiment on SK-MEL-28 melanoma, with SNB-19 CNS, in the experiment with TK-10 renal, with U251 CNS and in the experiment on UACC-257 melanoma was more than 100 µM in each case. In the experiment on UACC-62 melanoma, this compound yielded a TGI of more than 100 µM.

For the compound `CCC1CN2CCC3(c4ccccc4)CC(C(=O)OC)=CC1C23` (stereo not given), the TGI in the experiment on HOP-62 NSCLC amounted to 38.4 µM; with HOP-92 NSCLC it was 25.9 µM; in the experiment with IGROV1 ovarian it was 47.3 µM; in the experiment with K-562 leukemia, 24.9 µM; in the experiment on KM12 colon, 28.2 µM; in the experiment on M14 melanoma, 28.2 µM. Besides, the TGI in the experiment with OVCAR-4 ovarian is 27.8 µM; with RXF 393 renal it was 33.6 µM; with SK-MEL-28 melanoma it was 31.5 µM; with SNB-19 CNS it was 35 µM; in the experiment with TK-10 renal, 58.6 µM; in the experiment on U251 CNS, 30 µM. For the same compound, the TGI turned out to be 32 µM with UACC-257 melanoma and 30.2 µM with UACC-62 melanoma.

Turning to `CN(C)Cc1cc(N=Nc2ccc(Cl)cc2)ccc1OC(=O)c1ccccc1`, the TGI with HOP-62 NSCLC stood at 26.5 µM; in the experiment on HOP-92 NSCLC it was 11.1 µM; with IGROV1 ovarian, 25.9 µM; in the experiment with K-562 leukemia it was 35.8 µM; with KM12 colon, 29.6 µM; in the experiment on NCI/ADR-RES ovarian, 45.4 µM. Moreover, the TGI was 28.5 µM in the experiment with OVCAR-4 ovarian; 30.1 µM in the experiment with RXF 393 renal; 29.7 µM with SK-MEL-28 melanoma; 29.8 µM in the experiment on SNB-19 CNS; 29.8 µM with TK-10 renal; 29.4 µM in the experiment with U251 CNS. This compound also had a TGI with UACC-257 melanoma of 35.2 µM.

As for `Cc1cc(Cl)ccc1C1OC(=O)c2c1ccc1ccccc21` (stereo not given), the TGI in the experiment with HOP-62 NSCLC, with HOP-92 NSCLC, in the experiment with IGROV1 ovarian, with K-562 leukemia, in the experiment on KM12 colon and with M14 melanoma was more than 100 µM each time. Moreover, the TGI in the experiment on OVCAR-4 ovarian, in the experiment on SK-MEL-28 melanoma, in the experiment on SNB-19 CNS, with TK-10 renal, in the experiment on U251 CNS and in the experiment on UACC-257 melanoma was more than 100 µM each time. The TGI in the experiment on UACC-62 melanoma was more than 100 µM.

Consider `CCOC(OC1=C(C#N)CCCC1)C(C)[Se]c1ccccc1` (stereo not given), for which the TGI with HOP-62 NSCLC was more than 100 µM; in the experiment on HOP-92 NSCLC, 67.3 µM; in the experiment on IGROV1 ovarian it was more than 100 µM; with K-562 leukemia it was more than 100 µM; with KM12 colon it was more than 100 µM; in the experiment on M14 melanoma, more than 100 µM. In addition, the TGI was 47.6 µM with OVCAR-4 ovarian; 29.8 µM in the experiment on RXF 393 renal; 71.6 µM with SK-MEL-28 melanoma; more than 100 µM in the experiment on SNB-19 CNS; more than 100 µM in the experiment on TK-10 renal; 32 µM in the experiment with U251 CNS. Moreover, the values for the TGI in the experiment on UACC-257 melanoma and in the experiment on UACC-62 melanoma were more than 100 µM and 63.2 µM, respectively.

With `O=c1[nH]n(Cc2ccccc2Cl)c2ccccc12`, the TGI in the experiment on HOP-62 NSCLC, with HOP-92 NSCLC, with IGROV1 ovarian, in the experiment on K-562 leukemia, in the experiment with KM12 colon and in the experiment with M14 melanoma was more than 100 µM throughout. In addition, the TGI in the experiment with NCI/ADR-RES ovarian, in the experiment on OVCAR-4 ovarian, with SK-MEL-28 melanoma, in the experiment with SNB-19 CNS, in the experiment with TK-10 renal and in the experiment with U251 CNS was more than 100 µM each time. Also, the TGI in the experiment with UACC-257 melanoma and in the experiment with UACC-62 melanoma was more than 100 µM throughout.

On to `CCc1cc2c(oc3cc(C)ccc32)c(=O)n1C`, for which the TGI in the experiment on HOP-92 NSCLC, in the experiment on IGROV1 ovarian, in the experiment with K-562 leukemia, in the experiment with KM12 colon, in the experiment on M14 melanoma and in the experiment with OVCAR-4 ovarian was more than 10 µM each time. Also, the TGI with RXF 393 renal, in the experiment on SNB-19 CNS, with T-47D breast, with TK-10 renal, in the experiment on U251 CNS and with UACC-257 melanoma was more than 10 µM each time.

Regarding `O=C(CC1C(=O)c2ccccc2C1=C1C(=O)c2ccccc2C1=O)c1ccccc1` (stereo not given), the TGI in the experiment on HOP-62 NSCLC, in the experiment with HOP-92 NSCLC, in the experiment with IGROV1 ovarian, in the experiment on K-562 leukemia, with KM12 colon and in the experiment on M14 melanoma was more than 100 µM in each case. The TGI in the experiment with OVCAR-4 ovarian, with RXF 393 renal, in the experiment on SK-MEL-28 melanoma, in the experiment on SNB-19 CNS, with TK-10 renal and in the experiment with U251 CNS was more than 100 µM each time. The TGI with UACC-257 melanoma and with UACC-62 melanoma was more than 100 µM throughout.

As to `CC(CCCOC(c1ccccc1)(c1ccccc1)c1ccccc1)OC(=O)Nc1ccccc1` (stereo not given), the TGI is 28.1 µM in the experiment with HOP-62 NSCLC; 21.7 µM in the experiment on HOP-92 NSCLC; 30 µM in the experiment with IGROV1 ovarian; 32.4 µM with K-562 leukemia; 27.1 µM in the experiment with KM12 colon; 27.2 µM with M14 melanoma. The TGI in the experiment with OVCAR-4 ovarian is 25 µM; with RXF 393 renal, 26.5 µM; in the experiment on SK-MEL-28 melanoma it was 28.7 µM; in the experiment on TK-10 renal it was 34.7 µM; with U251 CNS, 26.8 µM; in the experiment on UACC-257 melanoma, 28.8 µM. Besides, the TGI in the experiment with UACC-62 melanoma is 25.5 µM.

For `CC[C@@H]1/C=C/C=C/C[C@H](C)[C@@H](O)[C@](C)(O)C(=O)[C@H](C)[C@@H](O)[C@H](C)C(=O)[C@H](C)[C@@H](O)[C@H](C)/C=C/C(=O)O[C@H]2[C@@H](C)[C@@H](CC1)O[C@@]1(CC[C@@H](C)[C@@H](CC(C)O)O1)[C@@H]2C` (stereo not given in full), the TGI was 5.47 µM with HOP-62 NSCLC; 6.11 µM with HOP-92 NSCLC; 5.96 µM in the experiment on IGROV1 ovarian; more than 38.2 µM with K-562 leukemia; 11.7 µM in the experiment with KM12 colon; 6.52 µM with M14 melanoma. Also, the TGI with NCI/ADR-RES ovarian was 5.48 µM; in the experiment on OVCAR-4 ovarian, 9.33 µM; in the experiment with RXF 393 renal, 4.06 µM; with SK-MEL-28 melanoma, 25.3 µM; in the experiment on SNB-19 CNS, 19.8 µM; in the experiment with TK-10 renal, 12.3 µM. In addition, the TGI with U251 CNS is 11.1 µM; with UACC-257 melanoma it was 3.09 µM; in the experiment on UACC-62 melanoma, 6.57 µM.
